Data as given in patent US20230082430A1 (C4 Therapeutics, Inc., priority 2019, published 2023).

system: NCIH929.1 cells; test: Cell viability assay for Table 2 (CellTiter-Glo 2.0, ATP quantification, 96 hr); assay type: cell-based; conditions: 96 h, NCIH929.1 cell viability, 96 hr, top concentration 1 μM, 14 points half log titration; read-out: IC50
Source text: Cell Viability Assay for Table 2
CellTiter-Glo® 2.0 Assay was purchased from Promega (Madison, Wis., USA). NCIH929.1 cell line was purchased from ATCC (Manassas, Va., USA). Cell culture flasks and 384-well microplates were acquired from VWR (Radnor, Pa., USA).

| SMILES | IC50 [nM] |
| --- | --- |
| O=C1CCC(N2C(=O)c3cccc4c(Cc5cnn(C6CCN(C(=O)C78COC(C7)C8)CC6)c5)ccc2c34)C(=O)N1 (stereo not shown) [Compound 37, 3-(6-((1-(1-(2-oxabicyclo[2.1.1]hexane-4-carbonyl)piperidin-4-yl)-1H-pyrazol-4-yl)methyl)-2-oxobenzo[cd]indol-1(2H)-yl)piperidine-2,6-dione] | < 1 |
| N#CC1(C(=O)N2CCC(n3cc(Cc4ccc5c6c(cccc46)C(=O)N5C4CCC(=O)NC4=O)cn3)CC2)CC1 (stereo not shown) [Compound 38, 1-(4-(4-((1-(2,6-dioxopiperidin-3-yl)-2-oxo-l,2-dihydrobenzo[cd]indol-6-yl)methyl)-1H-pyrazol-1-yl)piperidine-1-carbonyl)cyclopropane-1-carbonitrile] | < 1 |
| N#CC1(C(=O)N2CCC(n3cc(Cc4ccc5c6c(cccc46)C(=O)N5C4CCC(=O)NC4=O)cn3)CC2)CCC1 (stereo not shown) [Compound 39, 1-(4-(4-((1-(2,6-dioxopiperidin-3-yl)-2-oxo-1,2-dihydrobenzo[cd]indol-6-yl)methyl)-1H-pyrazol-1-yl)piperidine-1-carbonyl)cyclobutane-1-carbonitrile] | < 1 |
| CC(C)(C#N)C(=O)N1CCC(n2cc(Cc3ccc4c5c(cccc35)C(=O)N4C3CCC(=O)NC3=O)cn2)CC1 (stereo not shown) [Compound 40, 3-(4-(4-((1-(2,6-dioxopiperidin-3-yl)-2-oxo-1,2-dihydrobenzo[cd]indol-6-yl)methyl)-1H-pyrazol-1-yl)piperidin-1-yl)-2,2-dimethyl-3-oxopropanenitrile] | < 1 |
| CC1(C(=O)N2CCC(n3cc(Cc4ccc5c6c(cccc46)C(=O)N5C4CCC(=O)NC4=O)cn3)CC2)CCOCC1 (stereo not shown) [Compound 41, 3-(6-((1-(1-(4-methyltetrahydro-2H-pyran-4-carbonyl)piperidin-4-yl)-1H-pyrazol-4-yl)methyl)-2-oxobenzo[cd]indol-1(2H)-yl)piperidine-2,6-dione] | < 1 |
| O=C1CCC(N2C(=O)c3cccc4c(Cc5cnn(C6CCN(C(=O)c7ccncc7)CC6)c5)ccc2c34)C(=O)N1 (stereo not shown) [Compound 42, 3-(6-((1-(1-isonicotinoylpiperidin-4-yl)-1H-pyrazol-4-yl)methyl)-2-oxobenzo[cd]indol-1(2H)-yl)piperidine-2,6-dione] | < 1 |
| O=C1CCC(N2C(=O)c3cccc4c(Cc5cnn(C6CCN(C(=O)c7cccnc7)CC6)c5)ccc2c34)C(=O)N1 (stereo not shown) [Compound 43, 3-(6-((1-(1-nicotinoylpiperidin-4-yl)-1H-pyrazol-4-yl)methyl)-2-oxobenzo[cd]indol-1(2H)-yl)piperidine-2,6-dione] | < 1 |
| CC(C)(C)C(=O)N1CCC(n2cc(Cc3ccc4c5c(cccc35)C(=O)N4C3CCC(=O)NC3=O)cn2)CC1 (stereo not shown) [Compound 44, 3-(2-oxo-6-((1-(1-pivaloylpiperidin-4-yl)-1H-pyrazol-4-yl)methyl)benzo[cd]indol-1(2H)-yl)piperidine-2,6-dione] | < 1 |
| Cc1cccc(C)c1C(=O)N1CCC(n2cc(Cc3ccc4c5c(cccc35)C(=O)N4C3CCC(=O)NC3=O)cn2)CC1 (stereo not shown) [Compound 45, 3-(6-((1-(1-(2,6-dimethylbenzoyl)piperidin-4-yl)-1H-pyrazol-4-yl)methyl)-2-oxobenzo[cd]indol-1(2H)-yl)piperidine-2,6-dione] | < 1 |
| O=C1CCC(N2C(=O)c3cccc4c(Cc5cnn(C6CCN(C(=O)c7ccccn7)CC6)c5)ccc2c34)C(=O)N1 (stereo not shown) [Compound 46, 3-(2-oxo-6-((1-(1-picolinoylpiperidin-4-yl)-1H-pyrazol-4-yl)methyl)benzo[cd]indol-1(2H)-yl)piperidine-2,6-dione] | < 1 |
| O=C1CCC(N2C(=O)c3cccc4c(Cc5cnn(C6CCN(C(=O)c7ccccc7)CC6)c5)ccc2c34)C(=O)N1 (stereo not shown) [Compound 47, 3-(6-((1-(1-benzoylpiperidin-4-yl)-1H-pyrazol-4-yl)methyl)-2-oxobenzo[cd]indol-1(2H)-yl)piperidine-2,6-dione] | < 1 |
| O=C1CCC(N2C(=O)c3cccc4c(Cc5cnn(C6CCN(C(=O)C78CC(CO7)C8)CC6)c5)ccc2c34)C(=O)N1 (stereo not shown) [Compound 48, 3-(6-((1-(1-(2-oxabicyclo[2.1.1]hexane-1-carbonyl)piperidin-4-yl)-1H-pyrazol-4-yl)methyl)-2-oxobenzo[cd]indol-1(2H)-yl)piperidine-2,6-dione] | < 1 |
| CC12CC(C(=O)N3CCC(n4cc(Cc5ccc6c7c(cccc57)C(=O)N6C5CCC(=O)NC5=O)cn4)CC3)(CCO1)C2 (stereo not shown) [Compound 49, 3-(6-((1-(1-(1-methyl-2-oxabicyclo[3.1.1]heptane-5-carbonyl)piperidin-4-yl)-1H-pyrazol-4-yl)methyl)-2-oxobenzo[cd]indol-1(2H)-yl)piperidine-2,6-dione] | < 1 |
| O=C1CCC(N2C(=O)c3cccc4c(Cc5cnn(C6CCN(C(=O)C78CCCC(C7)C8)CC6)c5)ccc2c34)C(=O)N1 (stereo not shown) [Compound 50, 3-(6-((1-(1-(bicyclo[3.1.1]heptane-1-carbonyl)piperidin-4-yl)-1H-pyrazol-4-yl)methyl)-2-oxobenzo[cd]indol-1(2H)-yl)piperidine-2,6-dione] | < 1 |
| O=C1CCC(N2C(=O)c3cccc4c(Cc5cnn(C6CCN(C(=O)C7(C(F)(F)F)CCC7)CC6)c5)ccc2c34)C(=O)N1 (stereo not shown) [Compound 51, 3-(2-oxo-6-((1-(1-(1-(trifluoromethyl)cyclobutane-1-carbonyl)piperidin-4-yl)-1H-pyrazol-4-yl)methyl)benzo[cd]indol-1(2H)-yl)piperidine-2,6-dione] | < 1 |
| O=C1CCC(N2C(=O)c3cccc4c(Cc5cnn(C6CCN(C(=O)C7(C(F)(F)F)CC7)CC6)c5)ccc2c34)C(=O)N1 (stereo not shown) [Compound 52, 3-(2-oxo-6-((1-(1-(1-(trifluoromethyl)cyclopropane-1-carbonyl)piperidin-4-yl)-1H-pyrazol-4-yl)methyl)benzo[cd]indol-1(2H)-yl)piperidine-2,6-dione] | < 1 |
| CC1(C(=O)N2CCC(n3cc(Cc4ccc5c6c(cccc46)C(=O)N5C4CCC(=O)NC4=O)cn3)CC2)CCC1 (stereo not shown) [Compound 53, 3-(6-((1-(1-(1-methylcyclobutane-1-carbonyl)piperidin-4-yl)-1H-pyrazol-4-yl)methyl)-2-oxobenzo[cd]indol-1(2H)-yl)piperidine-2,6-dione] | < 1 |
| O=C1CCC(N2C(=O)c3cccc4c(Cc5cnn(C6CCN(C(=O)C78C9C%10C%11C9C7C%11C%108)CC6)c5)ccc2c34)C(=O)N1 (stereo not shown) [Compound 54, 3-(6-((1-(1-(cubane-1-carbonyl)piperidin-4-yl)-1H-pyrazol-4-yl)methyl)-2-oxobenzo[cd]indol-1(2H)-yl)piperidine-2,6-dione] | < 1 |
| CC1(CN2CCC(n3cc(Cc4ccc5c6c(cccc46)C(=O)N5C4CCC(=O)NC4=O)cn3)CC2)CCC1 (stereo not shown) [Compound 55, 3-(6-((1-(1-((1-methylcyclobutyl)methyl)piperidin-4-yl)-1H-pyrazol-4-yl)methyl)-2-oxobenzo[cd]indol-1(2H)-yl)piperidine-2,6-dione] | < 1 |
| COC1(CN2CCC(n3cc(Cc4ccc5c6c(cccc46)C(=O)N5C4CCC(=O)NC4=O)cn3)CC2)CCC1 (stereo not shown) [Compound 56, 3-(6-((1-(1-((1-methoxycyclobutyl)methyl)piperidin-4-yl)-1H-pyrazol-4-yl)methyl)-2-oxobenzo[cd]indol-1(2H)-yl)piperidine-2,6-dione] | < 1 |
| O=C1CCC(N2C(=O)c3cccc4c(Cc5cnn(C6CCN(CC7(C(F)(F)F)CCC7)CC6)c5)ccc2c34)C(=O)N1 (stereo not shown) [Compound 57, 3-(2-oxo-6-((1-(1-((1-(trifluoromethyl)cyclobutyl)methyl)piperidin-4-yl)-1H-pyrazol-4-yl)methyl)benzo[cd]indol-1(2H)-yl)piperidine-2,6-dione] | < 1 |
| COC(C)(C)CN1CCC(n2cc(Cc3ccc4c5c(cccc35)C(=O)N4C3CCC(=O)NC3=O)cn2)CC1 (stereo not shown) [Compound 58, 3-(6-((1-(1-(2-methoxy-2-methylpropyl)piperidin-4-yl)-1H-pyrazol-4-yl)methyl)-2-oxobenzo[cd]indol-1(2H)-yl)piperidine-2,6-dione] | < 1 |
| O=C1CCC(N2C(=O)c3cccc4c(Cc5cnn(C6CCN(CC7(F)CCC7)CC6)c5)ccc2c34)C(=O)N1 (stereo not shown) [Compound 59, 3-(6-((1-(1-((1-fluorocyclobutyl)methyl)piperidin-4-yl)-1H-pyrazol-4-yl)methyl)-2-oxobenzo[cd]indol-1(2H)-yl)piperidine-2,6-dione] | < 1 |
| N#CC1(CN2CCC(n3cc(Cc4ccc5c6c(cccc46)C(=O)N5C4CCC(=O)NC4=O)cn3)CC2)CCC1 (stereo not shown) [Compound 60, 1-((4-(4-((1-(2,6-dioxopiperidin-3-yl)-2-oxo-1,2-dihydrobenzo[cd]indol-6-yl)methyl)-1H-pyrazol-1-yl)piperidin-1-yl)methyl)cyclobutane-1-carbonitrile] | < 1 |
| CC(C)(C#N)CN1CCC(n2cc(Cc3ccc4c5c(cccc35)C(=O)N4C3CCC(=O)NC3=O)cn2)CC1 (stereo not shown) [Compound 61, 3-(4-(4-((1-(2,6-dioxopiperidin-3-yl)-2-oxo-1,2-dihydrobenzo[cd]indol-6-yl)methyl)-1H-pyrazol-1-yl)piperidin-1-yl)-2,2-dimethylpropanenitrile] | < 1 |
| O=C1CCC(N2C(=O)c3cccc4c(Cc5cnn(C6CCN(CC7(C(F)(F)F)CC7)CC6)c5)ccc2c34)C(=O)N1 (stereo not shown) [Compound 62, 3-(2-oxo-6-((1-(1-((1-(trifluoromethyl)cyclopropyl)methyl)piperidin-4-yl)-1H-pyrazol-4-yl)methyl)benzo[cd]indol-1(2H)-yl)piperidine-2,6-dione] | < 1 |
| CC(C)(C)CN1CCC(n2cc(Cc3ccc4c5c(cccc35)C(=O)N4C3CCC(=O)NC3=O)cn2)CC1 (stereo not shown) [Compound 63, 3-(6-((1-(1-neopentylpiperidin-4-yl)-1H-pyrazol-4-yl)methyl)-2-oxobenzo[cd]indol-1(2H)-yl)piperidine-2,6-dione] | < 1 |
| CC1(CN2CCC(n3cc(Cc4ccc5c6c(cccc46)C(=O)N5C4CCC(=O)NC4=O)cn3)CC2)CC1 (stereo not shown) [Compound 64, 3-[6-[[1-[1-[(1-methylcyclopropyl)methyl]-4-piperidyl]pyrazol-4-yl]methyl]-2-oxo-benzo[cd]indol-1-yl]piperidine-2,6-dione] | < 1 |
